Source: US12280148B2, “Composition for promoting extracellular vesicle production containing peptide derived from noxa protein and method for producing extracellular vesicles by using same” (Exocalibre Therapeutics Co., Ltd., priority 2020, dated 2025)

Legend:
Format in all cases: cell-based, human
[1] = test system: 293-HEK cell line; experiment: Extracellular vesicle output quantified by Bradford solution
Protocol: The 293-HEK cell line was cultured in a 6-well plate at a rate of 2×10^5 cells/mL, and the next day, the cell line was treated with the solution of Example 1 and a peptide of any one of SEQ ID NOs: 1 to 21. […], the solution was removed, followed by centrifugation at an RCF of 12000, and the extracellular vesicles were quantified using the supernatant by Bradford solution.

[2] = test system: HeLa cell line; experiment: Production of extracellular vesicles, observed by optical microscope (bright field)
Protocol: After the HeLa cell line was cultured in a 6-well plate, the culture was removed, and then the HeLa cell line was treated with the solution in Example 1.
The control group was not treated with any peptide, and the experiment group was treated with eMTDΔ4 peptide of SEQ ID NO: 2 (final concentration: 20 μM). After 10 minutes, the generation of extracellular vesicles was observed by an optical microscope (bright field), and the observation results are shown in FIG. 1.
Extracellular vesicle production was carried out by the experimental method of Experimental Example 2-1 using the R(8):MTD peptide of SEQ ID NO: 4 and the solutions of Example 1 and Comparative Examples 1 to 18, and the results are shown in FIGS. 2A to 2S.
Extracellular vesicle production was carried out by the experimental method of Example 2-1 using the R(8):MTD peptide of SEQ ID NO: 4 and the solutions of Examples 1 to 3 on Table 3, and the results are shown in FIGS. 3A to 3C.

[3] = test system: 293-HEK cell line; experiment: Extracellular vesicle size and quantity by Nanoparticle Tracking Analysis (NTA); settings: 50-fold diluted, solution of Example 1, peptide 20 μm, after 20 minutes
Protocol: After the 293-HEK cell line was cultured to 90% confluency (about 2×10^7 cells) in a 10-cm culture dish, the culture was removed, and the cells were treated with the eMTDΔ4 peptide (final concentration: 20 μm), which has been dissolved in 5 ml of the solution of Example 1. After 20 minutes, the solution was removed, followed by centrifugation at an RCF of 12000, and then the size and quantity of extracellular vesicles were measured using a Nanoparticle Tracking Analysis (NTA) system (Nanosight LM10, Malvern Instruments).

[4] = solution of Example 1, peptide 10 μM
[5] = solution of Example 1, peptide 20 μM
[6] = solution of Example 1, peptide 40 μM

Row | Sequence | Amount of proteins contained in extracellular vesicles [1, 4] [µg/µL] | Amount of proteins contained in extracellular vesicles [1, 5] [µg/µL] | Amount of proteins contained in extracellular vesicles [1, 6] [µg/µL] | generation of extracellular vesicles ([2]; solution of Example 1 (250 mM sucrose), peptide final concentration 20 μM, after 10 minutes) | generation of extracellular vesicles ([2]; solutions of Comparative Examples 1 to 18 (FIGS. 2B to 2S)) | generation of extracellular vesicles ([2]; solutions of Examples 1 to 3, excess of glucose or sorbitol instead of sucrose) | Quantity of extracellular vesicles [3] [mL⁻¹]
1 | MEWWYLLKLLNLISKLF (TU104) [Noxa protein-derived derivative peptide, 17aa] | 0.62 | 0.75 | 1.02 |  |  |  | 
2 | RRRRRRRRKLLNLISKLF [R(8):MTD] |  |  |  | many extracellular vesicle particles were generated | extracellular vesicle particles were not generated | extracellular vesicles were well formed | 
3 | AHFLRKLLNLISKLF (TU149) [Noxa protein-derived derivative peptide, 15aa] | 1.71 | 2.00 | 2.57 |  |  |  | 
4 | RPARPARGGKLLNLISKLF (TU17) [Noxa protein-derived derivative peptide, 19aa] |  |  |  |  |  |  | 7.95e+08 ± 7.15e+07
5 | KLNFRQKLARLLTKLF (TU171) [Noxa protein-derived derivative peptide, 16aa] | 2.64 | 3.62 | 5.30 |  |  |  | 
6 | AEYSRKLLNLISKLF (TU135) [Noxa protein-derived derivative peptide, 15aa] | 1.81 | 4.41 | 6.54 |  |  |  | 
7 | LRSLRDKLLNLISKLF (TU107) [Noxa protein-derived derivative peptide, 16aa] | 5.58 | 6.69 | 7.45 |  |  |  | 
8 | KLNFAEFLRNLISKLF (TU166) [Noxa protein-derived derivative peptide, 16aa] | 5.77 | 6.68 | 8.10 |  |  |  | 
9 | KLLNLWSLLFGYTIK (TU103) [Noxa protein-derived derivative peptide, 15aa] | 0.75 | 0.40 | 0.55 |  |  |  | 
10 | GLKSLRKLLNLISKLF (TU111) [Noxa protein-derived derivative peptide, 16aa] | 4.17 | 4.98 | 6.44 |  |  |  | 
11 | YWLPLRKLLNLISKLF (TU146) [Noxa protein-derived derivative peptide, 16aa] | 2.01 | 2.89 | 3.50 |  |  |  | 
12 | QFAQYLRNLISKLF (TU155) [Noxa protein-derived derivative peptide, 14aa] | 1.56 | 1.77 | 2.85 |  |  |  | 
13 | KLNFRLGLRSLREKLF (TU168) [Noxa protein-derived derivative peptide, 16aa] | 0.77 | 2.17 | 3.74 |  |  |  | 
14 | KLLNLWSLLKGYTIK (TU124) [Noxa protein-derived derivative peptide, 15aa] | 3.30 | 5.02 | 6.24 |  |  |  | 
15 | AFFLRKLLNLISKLF (TU151) [Noxa protein-derived derivative peptide, 15aa] | 1.51 | 1.30 | 1.40 |  |  |  | 
16 | KWYAKLLNLISKLF (TU114) [Noxa protein-derived derivative peptide, 14aa] |  |  |  |  |  |  | 8.75e+08 ± 9.27e+07
17 | KLLNLISKLF [MTD] | 0.80 | 1.17 | 2.87 |  |  |  | 8.01e+08 ± 1.75e+07
18 | AEYRKLLNLISKLF (TU128) [Noxa protein-derived derivative peptide, 14aa] | 3.86 | 5.29 | 7.25 |  |  |  | 
19 | KVSIFLKNLISKLF (TU156) [Noxa protein-derived derivative peptide, 14aa] | 1.17 | 1.55 | 3.93 |  |  |  | 
20 | LNFKWYSLLNLISKLF (TU172) [Noxa protein-derived derivative peptide, 16aa] | 0.83 | 0.44 | 0.59 |  |  |  | 
